Measurements published in US10995126B2, “Immunogenic peptide containing a b cell epitope of tumor associated antigen L6” (National Health Research Institutes, priority 2016, dated 2021).
No end group written: not given here.

Tests used:
[1] = tested on: lung cancer cell line H2981; test: ADCC Cr51 release assay with sera of immunized mice, H2981 target cells; format: cell-based, human; conditions: formulated with PELC/CpG; sera collected at 6 weeks
Experimental: (§1) FIG. 9 is a set of graphs showing that peptide formulated with different adjuvants induced antibody-dependent cellular cytotoxicity (ADCC) against human cancer cells. Mice were immunized with peptide Th-EP1-A2-5 in various adjuvants twice at a two-week interval. Sera were collected at 6 weeks for ADCC assay. (A) Lung cancer cell line H2981 was used as a target. (B) Human breast cancer cell lines MCF7 and MCF7-TAL6 were used as targets. TAL6-specific ADCC was determined by Cr^51 release assay. The lysis percentage was calculated as: immunized serum (lysis %)−naïve serum (lysis %) ***P<0.001.
(§2) Mice were immunized with Th-A2-5-EP1 formulated with different adjuvants twice at a two-week interval. Sera was collected at 6 weeks for ADCC assay. […] TAL6-specific ADCC was determined by Cr51 release assay. The lysis percentage was calculated by subtracting the […].
(§3) Mice spleen cells were used as effector cells for the ADCC assay. […] After 6 hr, supernatants were harvested to measure the radioactivity using a gamma counter. Spontaneous release was measured in wells containing target cells alone. […] Percent cytotoxicity was determined according to the formula: percent lysis=100×(experimental ^51Cr release−spontaneous ^51Cr release)/(maximal ^51Cr release−spontaneous ^51Cr release).

[2] = tested on: breast cancer cell lines MCF7 and MCF7-TAL6; test: ADCC Cr51 release assay with sera of immunized mice, MCF7 and MCF7-TAL6 target cells; format: cell-based, human; conditions: formulated with PELC/CpG; sera collected at 6 weeks
Experimental: as §1, §2, §3

[3] = tested on: TAL6-expressed EL4 (EL4/L6) cells; test: ADCC Cr51 release assay with sera of immunized mice, EL4/L6 target cells; format: cell-based; conditions: C57BL/6 mice, IFA; sera 1:100; immunized serum lysis % minus naïve serum lysis %
Experimental: (§4) FIG. 2 is a set of graphs showing that immunization of WT mice with the EP1 peptide induced anti-tumor immunity. EP1 or positive control MCF-7/TAL6 cells formulated with incomplete Freund's adjuvant (IFA) were administered to mice twice at a two-week interval. (A) Anti-TAL6 antibody titers were determined by using cell-based ELISA. Antigen-specific antibody was calculated as: EL4-L6 (O.D.)−EL4 (O.D.). (B) TAL6-specific ADCC was determined in a Cr^51 release assay. The lysis percentage was calculated as immunized serum (lysis %)−naïve serum (lysis %). ***P<0.001.
FIG. 6 is a set of graphs showing that immunization with PELC/CpG/Th-A2-5-EP1 induced high levels of humoral and cellular immunity in HLA-A2 mice. The Th-A2-5-EP1 peptide was formulated with different adjuvants. […] (A) IFN-γ-secreting cells were determined using IFN-γ ELISpot assay. Results are expressed as mean SD. ***P<0.001. […] (D) TAL6-specific ADCC was determined by Cr^51 release assay. The lysis percentage was calculated as: immunized serum (lysis %)—naïve serum (lysis %) ***P<0.001.
(§5) To test whether the EP1 peptide could raise antibodies that bind native TAL6, the EP1 peptide or MCF-7/L6 cells (as positive control) were formulated with IFA/Th and administered to C57BL/6 mice. Sera from immunized mice were collected and the anti-TAL6 antibody titers were analyzed using cell-based ELISA. […]

native TAL6 = target: T1, native TAL6 (Homo sapiens, UniProt P30408); test: Anti-TAL6 antibody in sera of immunized mice, cell-based ELISA; format: in vivo, C57BL/6 mice; conditions: formulated with IFA/Th, sera 1:500, EL4-L6 O.D. minus EL4 O.D.
T1 construct: expressed in transfected cells; host or cells: EL-4 (mouse lymphoma) cells expressing TAL6 (EL-4/L6, EL4-L6)
T1 sequence (P30408 1-202): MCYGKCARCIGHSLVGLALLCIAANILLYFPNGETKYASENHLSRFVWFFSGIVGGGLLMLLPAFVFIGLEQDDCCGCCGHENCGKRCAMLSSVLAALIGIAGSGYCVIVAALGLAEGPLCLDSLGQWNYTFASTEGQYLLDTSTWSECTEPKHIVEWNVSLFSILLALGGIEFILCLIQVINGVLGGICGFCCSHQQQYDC
Experimental: as §4
To test whether the EP1 peptide could raise antibodies that bind native TAL6, the EP1 peptide or MCF-7/L6 cells (as positive control) were formulated with IFA/Th and administered to C57BL/6 mice. Sera from immunized mice were collected and the anti-TAL6 antibody titers were analyzed using cell-based ELISA. […] See FIG. 2, A. Whether EP1 immunization could induce antibody-dependent cellular cytotoxicity (ADCC) was also investigated. Sera (1:100) from mice immunized with either EP1 or MCF-7/L6 cells could kill TAL6-expressed EL4 (EL4/L6) cells but not EL4 parental cells (61.82%±6.12% v.s. 0.36%±0.96% and 65.54%±1.77% v.s. 11.41%±3.094%). […]
(§6) For antibody epitope mapping, L6, 9C7 and 1F4 Mabs were assayed by ELISA. […] Absorbance was measured at 450 nm.

EL4 parental cells = test: ADCC Cr51 release assay with sera of immunized mice, EL4 parental target cells; format: cell-based; conditions: C57BL/6 mice, IFA; sera 1:100; immunized serum lysis % minus naïve serum lysis %
Experimental: as §4, §5, §3

B16-L6 cells = test: Immunization then subcutaneous B16-L6 tumor challenge in WT mice; format: in vivo, C57BL/6 mice
Experimental: EP1 or positive control MCF-7/TAL6 cells formulated with incomplete Freund's adjuvant (IFA) were administered to mice twice at a two-week interval. (A) At 7 days after the final immunization, B16-L6 (2×10^4) cells were inoculated subcutaneously. Tumor growth was monitored 2-3 times per week. (B) The survival rate of the mice was determined.
Mice were immunized with 50 mg of EP1 formulated with the indicated adjuvants twice at a 14-day interval. (A) At 7 days after the second immunization, 2×10^4 of B16/TAL6 cells were injected subcutaneously. Tumor growth was monitored 2-3 times per week. Results obtained are expressed as mean SD (n=6). (B) Mouse survival rate was monitored. Results are expressed as means ±SD (*P<0.05.**P<0.01).
See FIG. 2, B. To investigate if the EP1 peptide could induce anti-tumor activity, mice were immunized with EP1 peptide and then challenged with B16-L6 cells (2×10^4/mouse) at 7 days after the final immunization.
The EP1 peptide was formulated with different adjuvants. Mice were immunized with 50 mg of the formulations twice at a 14-day interval. At 7 days after the second immunization, 2×10^4 B16/TAL6 cells were injected subcutaneously to the mice. Tumor growth was monitored 2-3 times per week.
HLA-A2 Tg mice were injected subcutaneously (s.c.) twice at a 2-week interval with peptide formulated in IFA, alum, DOTAP liposome, PELC nanoparticles, or TLR9 agonist CpG. Seven days after the second immunization, the B16-L6-A2 or B16-L6 cells (2×10^4) were inoculated s.c. on the opposite site of the peptide injection. Tumor sizes were measure 2-3 times per week. Tumor volume was calculated using the formula: tumor volume=length×width×width/2.

[4] = tested on: anti-TAL6 monoclonal antibody L6; test: ELISA epitope mapping: detection of coated TAL6 peptides by L6 mAb; format: binding; conditions: plate coated with peptide 10 μg/ml; antibody 1:500
Experimental: FIG. 1 includes (A) a scheme showing the overlapping peptides that cover the extracellular domains of TAL6: EL1 (residues 31 to 46 of SEQ ID NO: 1); EL2 (residues 114 to 164 of SEQ ID NO: 1); EP1 (SEQ ID NO: 4); EP2 (SEQ ID NO: 17); EP3 (SEQ ID NO: 18); and EP4 (SEQ ID NO: 19); and (B) a graph showing binding of the peptides to anti-TAL6 antibodies. A 96-well plate was coated with the indicated peptides (10 μg/ml) in each well. Three anti-TAL6 antibodies (1:500) were used to detect these peptides. CP: Control peptide.
FIG. 10 is a graph showing identification of residues in EP1 that are important for antibody binding using alanine scanning. The amino acid residues in EPI were individually replaced with alanine to generate EP1-1 to EP1-20 peptides. Monoclonal antibody L6 was used to detect these peptides. EP1 is a positive control and EP-3 is a negative control.
Three purified anti-TAL6 monoclonal antibodies (1F4, 9C7, L6) were used to detect the surface expression TAL6 on EL-4 (EL-4/L6) cells. See Chang et al., Int J Cancer, 116 (2005) 243-252. […] To further map the antibody-binding epitopes, five peptides (EL1 and EP1-4) that cover the EL1 and EL2 extracellular loops were used to determine the linear B cell epitopes using ELISA. […]
as §6

Sequence | ADCC cytotoxicity, rank among adjuvant formulations [1] | ADCC cytotoxicity, rank among adjuvant formulations [2] | ADCC lysis of EL4/L6 cells [3] | anti-TAL6 antibody amount in sera versus vehicle (PBS) (native TAL6) | ADCC lysis of EL4 parental cells (EL4 parental cells) | tumor growth (B16-L6 cells; formulated with IFA, immunized twice, B16-L6 2×10^4/mouse s.c. 7 days after final immunization) | anti-tumor effects (tumor growth, survival) (B16-L6 cells; formulated with PELC/CpG, 50 mg twice at 14-day interval, 2×10^4 B16/TAL6 cells s.c.) | anti-tumor effect (tumor growth) (B16-L6 cells; formulated with different adjuvants, 50 mg twice at 14-day interval, 2×10^4 B16/TAL6 cells s.c.) | detection of the peptide by L6 mAb (ELISA) [4]
AKFVAAWTLKAAAAAALLMLLPAFVAAAGLAEGPLCLDSLGQWNYTFA [Th-A2-5-EP1] | strongest cytotoxicity | strongest cytotoxicity |  |  |  |  |  |  | 
GLAEGPLCLDSLGQWNYTFA [EP1] |  |  | 61.82%±6.12% | significantly higher amount of antibody | 0.36%±0.96% | significantly inhibited tumor growth | induced anti-tumor effects | exhibited an anti-tumor effect | could be detected by L6 mAb
